Reference: patent publication US20250296971A1, “GASTRIC INHIBITORY PEPTIDE RECEPTOR LIGANDS” (priority 2021, published 2025)
Blank lines part the entries; values can stand above or below the molecule they belong to. *1 amine or outer side, *2 acyl side, *3 side chain or, on linkers, in order; H or OH if unused. Where a SMILES comes first, the peptide text is derived from it. Bridges are numbered along the chain shown (N, C = ends). Where no end group is shown, it is not given here. [ ]: non-standard residue; d: D form. The star is where a group is joined. X5 = NC(=O)[C@H](CCCCNC(=O)CN1CCN(CC(=O)O)CCN(CC(=O)O)CCN(CC(=O)O)CC1)NC(=O)CCC(=O)NCCCOCCOCCOCCCN*; Ttds = 1,13-diamino-4,7,10-trioxatridecan-succinamic acid, NCCCOCCOCCOCCCNC(=O)CCC(=O)*; X3 = O=C(O)CN1CCN(CC(=O)O)CCN(CC(=O)NCCCOCCOCCOCCCN*)CCN(CC(=O)O)CC1; DOTA = O=C(O)CN1CCN(CC(=O)O)CCN(CC(=O)*)CCN(CC(=O)O)CC1; Trp(5-Cl) = N[C@@H](Cc1c[nH]c2ccc(Cl)cc12)C(=O)O; mXylylene = c1cc(C[*:1])cc(C[*:2])c1; Ethylenediamine = C(CN[*:2])N[*:1]; Suc = O=C(CCC(=O)[*:2])[*:1]; 3CbBn = 3-carboxybenzyl; Aib = CC(C)(N)C(=O)O

Columns and labels:
[1] = molecular target: T1, GIPR (CHO-K1-hGIPR cells) (Homo sapiens, UniProt P48546); experiment: FACS binding assay; conditions: competition with 20 nM GIP-057, 4° C., 1 hour, read-out: pIC50 Category (converted)
T1 construct: host or cells: CHO-K1
T1 sequence (P48546 22-466): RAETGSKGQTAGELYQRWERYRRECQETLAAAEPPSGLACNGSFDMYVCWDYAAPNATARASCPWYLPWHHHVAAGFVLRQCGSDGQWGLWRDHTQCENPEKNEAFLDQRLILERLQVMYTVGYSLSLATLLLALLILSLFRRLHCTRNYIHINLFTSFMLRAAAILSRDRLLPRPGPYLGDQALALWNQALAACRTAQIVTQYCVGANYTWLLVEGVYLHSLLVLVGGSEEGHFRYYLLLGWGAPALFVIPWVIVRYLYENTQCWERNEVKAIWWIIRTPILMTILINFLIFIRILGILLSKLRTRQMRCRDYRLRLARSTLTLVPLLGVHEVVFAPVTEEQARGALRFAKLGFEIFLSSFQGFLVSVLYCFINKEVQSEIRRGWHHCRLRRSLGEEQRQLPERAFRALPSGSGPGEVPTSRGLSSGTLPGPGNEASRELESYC
Method in brief: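 CHO-K1 cells expressing human GIPR, washed in PBS/1% FCS, then stained with 1 μg/mL APC-streptavidin for 30 min on ice.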

[2] = Plasma stability assay, mouse plasma; format: in vitro ADME; conditions: 37° C., % intact compound remaining after 4 h or 24 h
Method: (§1) In order to determine the stability of selected compounds of the invention in human and mouse plasma, a plasma stability assay was carried out. Such plasma stability assay measures degradation of compounds of the present invention in blood plasma. This is an important characteristic of a compound as compounds, with the exception of pro-drugs, which rapidly degrade in plasma, generally show poor in vivo efficacy. […] The stability is sufficient for the diagnostic, therapeutic and theragnostic use of these compounds according to the present invention.
(§2) The plasma stability samples were prepared by spiking 50 μL plasma aliquots (all K2EDTA) with 1 μL of a 0.5 mM compound stock solution in DMS0. After vortexing the samples were incubated in a Thermomixer at 37° C. for 0, 4 and 24 hours. After incubation the samples were stored on ice until further treatment. All samples were prepared in duplicates.
(§3) A suitable internal standard was added to each sample (1 μL of a 0.5 mM stock solution in DMSO). Protein precipitation was performed by addition of 250 μL of acetonitrile containing 1% trifluoroacetic acid. After incubation at room temperature for 30 min the precipitate was separated by centrifugation and 150 μL of the supernatant was diluted with 150 μL of 1% aqueous formic acid.
(§4) Additionally, recovery was determined by spiking a pure plasma sample that only contained the internal standard after treatment with a certain amount of the compound.
(§5) Carry-over was evaluated by analysis of a blank sample (20% acetonitrile) after the highest calibration sample.

[3] = molecular target: Recombinant soluble human NEP (Homo sapiens, UniProt P08473); experiment: Proteolytic stability assay against NEP; conditions: NEP 100 ng/mL, compound 10 μM, 37° C., % intact compound remaining
[4] = Plasma stability assay, human plasma; format: in vitro ADME; conditions: 37° C., % intact compound remaining after 4 h or 24 h
Method: as §1, §2, §3, §4, §5

[5] = molecular target: T2, human GIPR (HEK-GIPR cells) (Homo sapiens, UniProt P48546); experiment: cAMP assay; format: cell-based; conditions: 37° C., 30 min, cAMP-Glo
T2 construct: host or cells: HEK293
T2 sequence (P48546 22-466): T1 sequence (P48546 22-466)
Method: In order to determine the inhibitory or stimulatory activity of compounds according to the present invention of GIPR-expressing cells, a cAMP activity assay was established.
HEK-GIPR cells were generated by InSCREENeX GmbH (Germany) using the targeting vector pTAR to insert the minimal CMV promoter upstream of the human GIPR cDNA by recombinase-mediated cassette exchange into the pre-tagged HEK293 cell line.
HEK-GIPR cells were cultured in RPMI-1640 medium (Sigma-Aldrich, #R0883) including 10% fetal calf serum (FCS), 8 mM L-glutamine, 100 U/mL penicillin, 100 μg/mL streptomycin and 1 mg/mL Geneticin. Cells were detached with Accutase (Biolegend, #BLD-423201) and diluted in culture medium to a final concentration of 100,000 cells per mL. 100 μL of the cell suspension were transferred to white poly-L-lysine-coated 96-well plates with optical bottom (Nunc, #165306) and incubated overnight in a humidified atmosphere containing 5% CO2 at 37° C.
For cAMP detection, the cAMP-Glo™ Assay (Promega, #V1501) was employed. […] After 10 min of incubation, luminescence was read using a SpectraMax M5 Plate Reader (Molecular Devices).
Relative luminescence values (RLU) were plotted against peptide concentration and four parameter logistic (4PL) curve fitting and calculations of EC50/pEC50 and IC50/pIC50, respectively, were performed using ActivityBase software.

[6] = molecular target: biotinylated extracellular domain of the human GIP receptor (bioGIPR) (human) (UniProt P48546); experiment: SPR single cycle kinetics, bioGIPR captured on chip; category B: pKD 8.1-9.0
[7] = molecular target: biotinylated extracellular domain of the human GIP receptor (bioGIPR) (human) (UniProt P48546); experiment: SPR single cycle kinetics, bioGIPR captured on chip; category C: t1/2 5-2.1 min
[8] = molecular target: human Gastric Inhibitory Peptide Receptor (GIPR) (human) (UniProt P48546); experiment: FACS competition vs biotinylated GIP-057 on CHO-K1-hGIPR cells; category B: pIC50 7.1-8.0

Recombinant soluble human NEP, sequence (P08473 52-750 limits assumed): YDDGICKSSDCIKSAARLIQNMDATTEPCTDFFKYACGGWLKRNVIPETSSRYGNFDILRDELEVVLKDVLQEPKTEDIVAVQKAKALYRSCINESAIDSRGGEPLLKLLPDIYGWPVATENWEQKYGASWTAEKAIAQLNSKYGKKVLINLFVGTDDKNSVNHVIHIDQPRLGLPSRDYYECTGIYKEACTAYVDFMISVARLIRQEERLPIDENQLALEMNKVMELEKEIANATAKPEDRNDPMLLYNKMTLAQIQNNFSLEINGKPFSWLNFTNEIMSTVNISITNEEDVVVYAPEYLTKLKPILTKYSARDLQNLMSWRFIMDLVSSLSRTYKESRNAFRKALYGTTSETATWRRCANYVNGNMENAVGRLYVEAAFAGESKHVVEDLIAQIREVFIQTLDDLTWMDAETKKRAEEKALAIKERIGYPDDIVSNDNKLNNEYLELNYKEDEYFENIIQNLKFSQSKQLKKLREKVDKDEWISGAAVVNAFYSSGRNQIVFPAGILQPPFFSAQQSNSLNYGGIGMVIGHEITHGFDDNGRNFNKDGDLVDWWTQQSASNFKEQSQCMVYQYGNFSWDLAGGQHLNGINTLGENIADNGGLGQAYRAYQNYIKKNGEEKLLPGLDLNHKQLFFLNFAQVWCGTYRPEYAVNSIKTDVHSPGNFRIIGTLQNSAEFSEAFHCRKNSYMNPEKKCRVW

Molecule: GIP(1-30) C-ter. ^natInDOTA
Mean pEC50 ± SD [5]: 12.0 ± 0.1

B1: DOTA-Ttds-Asp-Trp-5Clw-Pro-Glu-leu-[Cys(3CbBn)-Aib-Leu-Ile-en] (peptide)
peptide: {DOTA-Ttds}-DW[Trp(5-Cl)]PE[dL]C[Aib]LI[Ethylenediamine]
modifications: bridge (positions not given here) via 3CbBn; not fully specified (bridges); printed as DOTA-Ttds-Asp-Trp-5Clw-Pro-Glu-leu-[Cys(3CbBn)-Aib-Leu-Ile-en]
pKD [6]: 8.1 to 9 pkd
t1/2 [7]: 2.1 to 5 min
pIC50 [8]: 7.1 to 8 pic50

Now from value to molecule:

IC50 [1]: 10 to 79.4 nM
Mouse plasma stability category [2]: B (>80% intact after 4 hours)
NEP stability category [3]: A (>80% intact after 24 hours)
Molecule: CC[C@H](C)[C@@H]1NC(=O)[C@H](CC(C)C)NC(=O)[C@H](C)NC(=O)[C@@H](NC(=O)[C@H](CC(C)C)NC(=O)[C@H](CCC(=O)O)NC(=O)[C@@H]2CCCN2C(=O)[C@H](Cc2c[nH]c3ccccc23)NC(=O)[C@H](Cc2c[nH]c3ccccc23)NC(=O)[C@H](CC(=O)O)NC(=O)[C@H](Cc2ccc(O)cc2)NC(C)=O)CSCc2cccc(c2)CSC[C@@H](C(=O)NCCCOCCOCCOCCCNC(=O)CCC(=O)N[C@@H](CCCCNC(=O)CN2CCN(CC(=O)O)CCN(CC(=O)O)CCN(CC(=O)O)CC2)C(N)=O)NC1=O [GIP-127, Ac-Tyr-Asp-Trp-Trp-Pro-Glu-Leu-[Cys(3MeBn)-Ala-Leu-Ile-Cys]-Ttds-Lys(DOTA)-NH2] (Ac-YDWWPELCALIC-X5; linker 8-12 via mXylylene)

IC50 [1]: 10 to 79.4 nM
Human plasma stability category [4]: B (>80% intact after 4 hours)
Mouse plasma stability category [2]: B (>80% intact after 4 hours)
NEP stability category [3]: A (>80% intact after 24 hours)
Molecule: CC[C@H](C)[C@@H]1NC(=O)[C@H](CC(C)C)NC(=O)[C@H](C)NC(=O)[C@@H](NC(=O)[C@H](CC(C)C)NC(=O)[C@H](CCC(=O)O)NC(=O)[C@@H]2CCCN2C(=O)[C@H](Cc2c[nH]c3ccccc23)NC(=O)[C@H](Cc2c[nH]c3ccccc23)NC(=O)[C@H](CC(=O)O)NC(C)=O)CSCc2cccc(c2)CSC[C@@H](C(N)=O)NC1=O [GIP-244, Ac-Asp-Trp-Trp-Pro-Glu-Leu-[Cys(3MeBn)-Ala-Leu-Ile-Cys]-NH2] (Ac-DWWPELCALIC-NH2; linker 7-11 via mXylylene)

IC50 [1]: 10 to 79.4 nM
Mouse plasma stability category [2]: B (>80% intact after 4 hours)
NEP stability category [3]: A (>80% intact after 24 hours)
Molecule: CC[C@H](C)[C@@H]1NC(=O)[C@H](CC(C)C)NC(=O)[C@H](C)NC(=O)[C@@H](NC(=O)[C@H](CC(C)C)NC(=O)[C@H](CCC(=O)O)NC(=O)[C@@H]2CCCN2C(=O)[C@H](Cc2c[nH]c3ccccc23)NC(=O)[C@H](Cc2c[nH]c3ccccc23)NC(=O)[C@H](CC(=O)O)NC(=O)[C@H](Cc2ccc(O)cc2)NC(=O)CCC(=O)NCCCOCCOCCOCCCNC(=O)CN2CCN(CC(=O)O)CCN(CC(=O)O)CCN(CC(=O)O)CC2)CSCc2cccc(c2)CSC[C@@H](C(N)=O)NC1=O [GIP-126, DOTA-Ttds-Tyr-Asp-Trp-Trp-Pro-Glu-Leu-[Cys(3MeBn)-Ala-Leu-Ile-Cys]-NH2] ({X3-Suc}-YDWWPELCALIC-NH2; linker 8-12 via mXylylene)
